According to patent US6642265B1, “Thrombopoietin mimetics” (SmithKline Beecham Corporation, priority 2002, dated 2003):

Legend:
TPO receptor = molecular target: T1, TPO receptor (Homo sapiens, UniProt P40238); test: Luciferase assay in TPO-responsive BaF3 cell line; assay type: cell-based; conditions: TPO-responsive murine BaF3 cells
T1 construct: expressed in transfected cells; host or cells: murine BaF3 cells
T1 sequence (P40238 26-635): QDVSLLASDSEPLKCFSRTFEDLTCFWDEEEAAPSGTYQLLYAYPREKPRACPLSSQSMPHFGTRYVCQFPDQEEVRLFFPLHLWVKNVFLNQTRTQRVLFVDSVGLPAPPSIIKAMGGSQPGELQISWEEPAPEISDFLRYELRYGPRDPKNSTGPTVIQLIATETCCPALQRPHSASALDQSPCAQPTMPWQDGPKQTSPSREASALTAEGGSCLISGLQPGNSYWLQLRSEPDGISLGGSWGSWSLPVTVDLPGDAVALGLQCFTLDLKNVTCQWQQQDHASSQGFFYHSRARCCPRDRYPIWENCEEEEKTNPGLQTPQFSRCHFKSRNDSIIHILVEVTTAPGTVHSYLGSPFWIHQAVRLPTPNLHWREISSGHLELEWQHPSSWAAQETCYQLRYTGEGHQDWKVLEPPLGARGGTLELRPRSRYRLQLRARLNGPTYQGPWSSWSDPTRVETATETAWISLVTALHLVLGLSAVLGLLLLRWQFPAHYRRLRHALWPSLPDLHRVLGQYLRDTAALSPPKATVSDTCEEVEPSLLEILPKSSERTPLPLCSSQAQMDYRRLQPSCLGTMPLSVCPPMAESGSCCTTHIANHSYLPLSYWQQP
Protocol: Compounds of the present invention were tested for potency as mimetics of the TPO receptor in a Luciferase assay such as described in Lamb, et al., Nucleic Acids Research 23: 3283-3289 (1995) and Seidel, et al., Proc. Natl. Acad. Sci. USA 92: 3041-3045 (1995) by substituting a TPO-responsive BaF3 cell line (Vigon et a). Proc. Natl. Acad. Sci. USA 1992, 89, 5640-5644) for the HepG2 cells utilized therein. The murine BaF3 cells express TPO receptors and closely match the pattern of STAT (signal transducers and activators of transcription) activation observed in primary murine and human bone marrow cells.

melting point | EC50 (TPO receptor) [nM] | activity relative to TPO in the luciferase assay (TPO receptor; efficacy printed with the EC50) [% TPO] | Compound
240 °C (dec.) | – | – | Cc1ccc(-n2nc(C)c(N=Nc3cc(Cl)cc(S(=O)(=O)O)c3O)c2O)cc1C [Example 11, 5-Chloro-3-{[1-(3,4-dimethylphenyl)-5-hydroxy-3-methyl-1H-pyrazol-4-yl]azo}-2-hydroxybenzenesulfonic Acid]
258 to 260 °C (dec.) | – | – | Cc1nn(-c2ccc(OCc3ccccc3)cc2)c(O)c1N=Nc1ccc(C(=O)O)cc1O [Example 3, 4-{[1-(4-Benzyloxyphenyl)-5-hydroxy-3-methyl-1H-pyrazol-4-yl]azo}-3-hydroxybenzoic Acid]
– | 1800 | 50 | Cc1ccc(-n2nc(C)c(N=Nc3ccc(C(=O)O)cc3O)c2O)cc1C [Example 6, 4-{[1-(3,4-Dimethylphenyl)-5-hydroxy-3-methyl-1H-pyrazol-4-yl]azo}-3-hydroxybenzoic Acid]
